{"source": "paper PMC5626965", "about": "“Bifidobacterium bifidum Extracellular Sialidase Enhances Adhesion to the Mucosal Surface and Supports Carbohydrate Assimilation” (mBio, 2017)", "key": {"His-SiaBb1": {"target": "T1, His-SiaBb1 (Bifidobacterium bifidum, UniProt A0ABM7ET56)", "T1 construct": "gene BBBF_1779; His-tagged; native precursor 1,795 aa with Sec signal and C-terminal TM", "T1 sequence (A0ABM7ET56 40-1795 limits assumed)": "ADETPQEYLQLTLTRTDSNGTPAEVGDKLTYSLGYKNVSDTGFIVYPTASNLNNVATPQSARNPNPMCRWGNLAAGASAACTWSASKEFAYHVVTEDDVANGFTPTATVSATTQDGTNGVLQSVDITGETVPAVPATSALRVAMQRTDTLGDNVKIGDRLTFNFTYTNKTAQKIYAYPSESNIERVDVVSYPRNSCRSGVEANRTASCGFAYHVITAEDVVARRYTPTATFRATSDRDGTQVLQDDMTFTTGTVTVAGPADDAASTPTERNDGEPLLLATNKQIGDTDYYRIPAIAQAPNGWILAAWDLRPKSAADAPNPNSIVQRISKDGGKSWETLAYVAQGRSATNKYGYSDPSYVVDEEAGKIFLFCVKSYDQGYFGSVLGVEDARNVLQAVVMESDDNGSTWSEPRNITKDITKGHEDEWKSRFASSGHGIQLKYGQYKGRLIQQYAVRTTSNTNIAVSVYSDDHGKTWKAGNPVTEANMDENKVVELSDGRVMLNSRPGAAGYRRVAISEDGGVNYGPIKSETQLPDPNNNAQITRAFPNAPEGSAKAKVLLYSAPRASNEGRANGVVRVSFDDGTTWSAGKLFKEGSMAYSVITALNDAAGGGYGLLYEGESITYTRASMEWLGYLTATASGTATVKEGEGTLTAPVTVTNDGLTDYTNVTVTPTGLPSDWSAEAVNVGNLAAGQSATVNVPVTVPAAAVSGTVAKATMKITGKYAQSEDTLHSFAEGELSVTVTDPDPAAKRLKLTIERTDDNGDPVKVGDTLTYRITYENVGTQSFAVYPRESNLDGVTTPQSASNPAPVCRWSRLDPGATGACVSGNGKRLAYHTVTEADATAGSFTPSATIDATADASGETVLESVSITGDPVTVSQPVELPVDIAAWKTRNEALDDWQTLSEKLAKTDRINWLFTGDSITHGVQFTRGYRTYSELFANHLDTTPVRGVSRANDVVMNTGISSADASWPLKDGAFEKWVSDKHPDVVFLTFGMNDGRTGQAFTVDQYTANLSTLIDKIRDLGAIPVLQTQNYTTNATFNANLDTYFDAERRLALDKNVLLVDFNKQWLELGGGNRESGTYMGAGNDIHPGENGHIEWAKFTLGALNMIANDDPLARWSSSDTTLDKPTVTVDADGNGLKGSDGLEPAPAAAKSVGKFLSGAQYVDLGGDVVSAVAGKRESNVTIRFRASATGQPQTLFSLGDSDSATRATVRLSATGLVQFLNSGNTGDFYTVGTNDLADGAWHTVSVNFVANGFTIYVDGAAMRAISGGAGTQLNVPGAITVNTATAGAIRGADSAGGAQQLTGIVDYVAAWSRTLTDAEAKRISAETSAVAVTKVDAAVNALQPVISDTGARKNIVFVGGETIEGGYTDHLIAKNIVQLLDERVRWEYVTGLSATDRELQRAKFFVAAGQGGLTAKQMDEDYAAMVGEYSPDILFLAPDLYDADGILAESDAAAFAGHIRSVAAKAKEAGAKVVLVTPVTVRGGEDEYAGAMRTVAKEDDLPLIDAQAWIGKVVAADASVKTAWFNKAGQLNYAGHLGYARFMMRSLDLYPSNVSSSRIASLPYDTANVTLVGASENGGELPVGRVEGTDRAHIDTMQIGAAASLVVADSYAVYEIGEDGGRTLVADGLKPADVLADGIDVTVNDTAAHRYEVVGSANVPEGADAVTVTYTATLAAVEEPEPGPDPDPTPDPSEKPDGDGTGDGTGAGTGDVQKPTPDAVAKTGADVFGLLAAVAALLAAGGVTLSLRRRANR", "test": "fluorescence sialidase assay", "type": "biochemical", "details": "50 μM recombinant protein, 30 min"}, "[1]": {"target": "T2, His-Sia (sialidase domain of SiaBb2, aa 187 to 553) (Bifidobacterium bifidum, UniProt A0A1Y1C8G4)", "T2 construct": "conserved sialidase domain aa 187-553 of 835 aa precursor; N-terminal 6xHis tag; recombinant; biotinylated for glycoarray, immobilized on CM5 chip for SPR; GH33", "test": "SPR, His-Sia immobilized on CM5 chip", "details": "HBS-EP pH 7.4, 25°C; binding decreased by 5 mM Neu5Ac2en; also glycoarray positive"}, "His-SiaBb2": {"target": "T3, His-SiaBb2 (Bifidobacterium bifidum, UniProt A0A1Y1C8G4)", "T3 construct": "gene sia2; N-terminal 6xHis tag; native precursor 835 aa with Sec signal and C-terminal TM", "T3 sequence (A0A1Y1C8G4 37-810)": "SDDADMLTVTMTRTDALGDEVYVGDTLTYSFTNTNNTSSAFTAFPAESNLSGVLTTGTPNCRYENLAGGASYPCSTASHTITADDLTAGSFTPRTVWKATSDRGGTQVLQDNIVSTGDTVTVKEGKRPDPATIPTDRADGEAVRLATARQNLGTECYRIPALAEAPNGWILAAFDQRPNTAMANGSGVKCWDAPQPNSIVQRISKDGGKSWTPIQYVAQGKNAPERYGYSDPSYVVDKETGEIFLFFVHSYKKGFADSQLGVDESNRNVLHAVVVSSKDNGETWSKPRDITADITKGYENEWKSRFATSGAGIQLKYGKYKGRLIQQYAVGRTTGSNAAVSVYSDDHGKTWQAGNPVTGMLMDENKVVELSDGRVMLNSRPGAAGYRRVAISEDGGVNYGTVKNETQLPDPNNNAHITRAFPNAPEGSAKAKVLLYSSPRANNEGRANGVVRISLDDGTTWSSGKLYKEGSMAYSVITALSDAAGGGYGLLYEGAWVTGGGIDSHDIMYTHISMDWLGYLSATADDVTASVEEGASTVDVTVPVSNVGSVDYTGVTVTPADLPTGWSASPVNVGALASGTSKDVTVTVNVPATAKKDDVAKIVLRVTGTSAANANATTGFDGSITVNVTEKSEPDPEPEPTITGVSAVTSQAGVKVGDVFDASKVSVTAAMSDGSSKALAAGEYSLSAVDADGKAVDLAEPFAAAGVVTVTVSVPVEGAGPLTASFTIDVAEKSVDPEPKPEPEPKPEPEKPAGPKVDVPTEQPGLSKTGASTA", "test": "inhibition of sialidase activity, dose response", "type": "biochemical", "details": "maximal inhibition at […]"}}}
{"smiles": "CC(=O)N[C@H]1[C@H]([C@H](O)[C@H](O)CO)OC(Oc2ccc3c(C)cc(=O)oc3c2)(C(=O)O)C[C@@H]1O", "note": "(stereo partly drawn) [4-MU-Neu5Ac, 2′-(4-methylumbelliferyl)-α-D-N-acetylneuraminic acid]", "values": [{"measurement": "fluorescence sialidase assay", "setting": "His-SiaBb1", "result": "all sialidase peptides with the exception of His-ΔSia showed time-dependent enzymatic activity"}]}
{"smiles": "CC(=O)N[C@H]1[C@H]([C@H](O)[C@H](O)CO)O[C@@](OC[C@H]2O[C@@H](O[C@H]3[C@H](O)[C@@H](O)C(O)O[C@@H]3CO)[C@H](O)[C@@H](O)[C@H]2O)(C(=O)O)C[C@@H]1O", "note": "(stereo partly drawn) [6'SL]", "values": [{"measurement": "MR at 10 μM (analyte/ligand, end of association)", "setting": "[1]", "result": 1.3}]}
{"smiles": "CC(=O)N[C@H]1[C@H]([C@H](O)[C@H](O)CO)OC(C(=O)O)=C[C@@H]1O", "note": "[Neu5Ac2en, N-acetyl-2,3-didehydro-2-deoxyneuraminic acid]", "values": [{"measurement": "inhibition of sialidase activity, dose response", "setting": "His-SiaBb2", "result": "Neu5Ac2en treatment inhibited the sialidase activity of His-SiaBb2 in a dose-dependent manner"}]}
